Data from patent EP1298213A1, “Variants of an Erwinia-type creatinase” (Roche Diagnostics GmbH, priority 2001, dated 2003).

How the values were obtained:
[1] = tested on: Erwinia sp. DSM 97-934 creatinase variant CTqc2 (F59W, N130D, I278T), SEQ ID NO: 18; test: Km determination, coupled creatinase activity assay; format: biochemical; details: creatine substrate at 90, 45, 22.5, 11.3, 5.6 and 2.8 mM; 0.1 M potassium phosphate buffer pH 7.8; 25°C
Protocol: (§1) The activity assay for creatinase and its variants was performed by using creatine as substrate and a coupled enzymatic reaction according to Guder, W. G., et al., J Clin Chem Clin Biochem 24 (1986) 889-902.
(§2) The reaction mixture was set up by combining the following reagents:
(§3) The assay for creatinase was carried out at 25°C and at the wavelength of 546 nm for 10 min. ΔE was calculated from the measurement points of 6 to 10 min.
(§4) For KM determination, creatinase activity was determined according to the assay procedure described in Example 3 using six different concentrations of creatine substrate: 90 mM, 45 mM, 22.5 mM, 11.3 mM, 5.6 mM and 2.8 mM.

[2] = tested on: Erwinia sp. DSM 97-934 creatinase variant CT2m10 (N130D, I278T, F395L), SEQ ID NO: 14; test: as above; format: biochemical; details: creatine substrate at 90, 45, 22.5, 11.3, 5.6 and 2.8 mM; 0.1 M potassium phosphate buffer pH 7.8; 25°C
Protocol: as §1, §2, §3, §4

[3] = tested on: Erwinia sp. DSM 97-934 creatinase variant CT2m28 (N130D, I304L, I278T), SEQ ID NO: 16; test: as above; format: biochemical; details: creatine substrate at 90, 45, 22.5, 11.3, 5.6 and 2.8 mM; 0.1 M potassium phosphate buffer pH 7.8; 25°C
Protocol: as §1, §2, §3, §4

[4] = tested on: Erwinia sp. DSM 97-934 creatinase variant CTsd7 (F59W, N130D, M203V, I278T, F395L), SEQ ID NO: 22; test: as above; format: biochemical; details: creatine substrate at 90, 45, 22.5, 11.3, 5.6 and 2.8 mM; 0.1 M potassium phosphate buffer pH 7.8; 25°C
Protocol: as §1, §2, §3, §4

[5] = tested on: Erwinia sp. DSM 97-934 creatinase variant CT2m9 (N130D, M203V, I278T), SEQ ID NO: 12; test: as above; format: biochemical; details: creatine substrate at 90, 45, 22.5, 11.3, 5.6 and 2.8 mM; 0.1 M potassium phosphate buffer pH 7.8; 25°C
Protocol: as §1, §2, §3, §4

[6] = tested on: Erwinia sp. DSM 97-934 creatinase variant CTsd2 (N130D, M203V, I278T, F395L), SEQ ID NO: 20; test: as above; format: biochemical; details: creatine substrate at 90, 45, 22.5, 11.3, 5.6 and 2.8 mM; 0.1 M potassium phosphate buffer pH 7.8; 25°C
Protocol: as §1, §2, §3, §4

[7] = tested on: Erwinia sp. DSM 97-934 creatinase, wild type, SEQ ID NO:2; test: as above; format: biochemical; details: creatine substrate at 90, 45, 22.5, 11.3, 5.6 and 2.8 mM; 0.1 M potassium phosphate buffer pH 7.8; 25°C
Protocol: as §1, §2, §3, §4

[8] = tested on: Erwinia sp. DSM 97-934 creatinase variant CT1m24 (N130D, I278T), SEQ ID NO: 10; test: as above; format: biochemical; details: creatine substrate at 90, 45, 22.5, 11.3, 5.6 and 2.8 mM; 0.1 M potassium phosphate buffer pH 7.8; 25°C
Protocol: as §1, §2, §3, §4

[9] = tested on: creatinase from Alcalingenes; details: reported in patent US 5,451,520; substrate creatine taken from context (b8); cited from earlier work

With `CN(CC(=O)O)C(=N)N` [creatine] the Km [1] was 6.6 mM, the Km [2] was 3.4 mM and the Km [3] was 4 mM. It also gave a Km [4] of 2 mM, a Km [5] of 6.3 mM and a Km [6] of 2.1 mM. The Km [7] was 4.3 mM, the Km [8] was 8.2 mM and the Km [9] was 13 mM.
